Source: patent publication US20230265116A1, “DEGRADATION OF (EGFR) BY CONJUGATION OF EGFR INHIBITORS WITH E3 LIGASE LIGAND AND METHODS OF USE” (BEIGENE, LTD., priority 2020, published 2023)

Legend:
Type in all cases: cell-based
[1] = tested on: EGFR Del19/T790M/C797S (BaF3-DTC cells); test: EGFR degradation HTRF assay, BaF3-DTC cells; conditions: 16h treatment; for DTC Dmax (%): maximum percentage of degradation; for DC50: read-out: DTC DC50
Summary of the method: (§1)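 Cells treated 16 h at 37 °C, 5% CO2 in medium with 0.2% DMSO; top final concentration 10 uM, 5-fold dilution, 8 doses. Lysates read by HTRF (665/620 nm); degradation % versus DMSO high control, DC50 from four-parameter fit, Dmax as maximal degradation.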

[2] = biological target: T1, EGFR L858R/T790M/C797S (BaF3-LTC cells) (Homo sapiens, UniProt P00533, C797S/L858R/T790M); test: EGFR degradation HTRF assay, BaF3-LTC cells; conditions: BaF3-LTC, 16h treatment; for Dmax: maximum percentage of degradation, read-out: LTC Dmax (%); for DC50: read-out: LTC DC50
T1 construct: expressed in transfected cells; host or cells: BaF3
Summary of the method: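 EGFR remaining after a 16 h, 37 °C exposure (8 doses, 5-fold steps from 10 uM final, 0.2% DMSO) was quantified by HTRF antibodies in cell lysate. Percent inhibition relative to DMSO control was fitted by four-parameter logistic to give DC50; Dmax denotes maximal degradation.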

[3] = biological target: T2, EGFR L858R/T790M (H1975-clone #36, homozygous) (Homo sapiens, UniProt P00533, L858R/T790M); test: EGFR degradation HTRF assay, H1975-clone #36 cells; conditions: H1975 #36, 16h treatment; for Dmax: NCI-H1975, maximum percentage of degradation
T2 construct: designed to specifically target WT EGFR but preserve the L858R/T790M copy; host or cells: H1975-clone #36
Summary of the method: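 Eight-point, 5-fold series starting at 10 uM (0.2% DMSO) applied for 16 h, 37 °C, to a WT-EGFR-knockout H1975 clone carrying only L858R/T790M. Lysates read by HTRF overnight. Degradation percentage relative to DMSO control fitted for DC50, with Dmax as maximum degradation.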

EGFR (HCC827 cells) = biological target: T3, EGFR (HCC827 cells) (Homo sapiens, UniProt P00533, DEL746-750); test: EGFR degradation HTRF assay, HCC827 cells; conditions: HCC827, 16h treatment; for Dmax: maximum percentage of degradation
T3 construct: endogenous in cells; host or cells: HCC827
Summary of the method: as §1

T3 sequence (P00533 with tags, fused parts or gaps DEL746-750): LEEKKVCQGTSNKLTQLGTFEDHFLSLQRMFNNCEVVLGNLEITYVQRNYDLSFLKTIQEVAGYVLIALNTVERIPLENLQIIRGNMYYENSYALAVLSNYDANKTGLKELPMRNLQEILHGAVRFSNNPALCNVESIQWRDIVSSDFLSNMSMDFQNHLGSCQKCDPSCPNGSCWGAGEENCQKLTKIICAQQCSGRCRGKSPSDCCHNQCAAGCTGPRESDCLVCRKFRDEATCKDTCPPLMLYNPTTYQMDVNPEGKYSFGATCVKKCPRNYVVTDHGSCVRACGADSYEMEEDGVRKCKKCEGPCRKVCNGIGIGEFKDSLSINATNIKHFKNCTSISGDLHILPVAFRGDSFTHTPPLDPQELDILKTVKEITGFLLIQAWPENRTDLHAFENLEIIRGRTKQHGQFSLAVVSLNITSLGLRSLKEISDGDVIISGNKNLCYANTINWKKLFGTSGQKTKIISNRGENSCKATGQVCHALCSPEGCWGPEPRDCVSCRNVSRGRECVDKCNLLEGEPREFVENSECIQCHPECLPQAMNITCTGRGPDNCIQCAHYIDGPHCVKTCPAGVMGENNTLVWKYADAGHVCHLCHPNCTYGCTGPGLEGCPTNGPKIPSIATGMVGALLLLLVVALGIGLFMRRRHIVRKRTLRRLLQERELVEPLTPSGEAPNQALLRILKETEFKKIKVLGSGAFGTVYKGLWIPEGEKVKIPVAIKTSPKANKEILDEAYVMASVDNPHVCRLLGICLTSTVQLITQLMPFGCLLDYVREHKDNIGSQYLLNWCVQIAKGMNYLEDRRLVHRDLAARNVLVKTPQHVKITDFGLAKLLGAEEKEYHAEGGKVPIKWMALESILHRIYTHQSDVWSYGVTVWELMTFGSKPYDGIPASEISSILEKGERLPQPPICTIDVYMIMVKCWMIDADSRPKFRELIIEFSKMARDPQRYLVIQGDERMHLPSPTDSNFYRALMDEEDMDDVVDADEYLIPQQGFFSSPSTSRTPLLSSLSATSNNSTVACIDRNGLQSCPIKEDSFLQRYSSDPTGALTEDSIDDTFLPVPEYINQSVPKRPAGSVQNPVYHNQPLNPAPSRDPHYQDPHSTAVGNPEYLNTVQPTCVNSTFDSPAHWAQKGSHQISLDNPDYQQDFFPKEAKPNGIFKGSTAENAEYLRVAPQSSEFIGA
T1 sequence (P00533 25-1210 T790M/C797S/L858R): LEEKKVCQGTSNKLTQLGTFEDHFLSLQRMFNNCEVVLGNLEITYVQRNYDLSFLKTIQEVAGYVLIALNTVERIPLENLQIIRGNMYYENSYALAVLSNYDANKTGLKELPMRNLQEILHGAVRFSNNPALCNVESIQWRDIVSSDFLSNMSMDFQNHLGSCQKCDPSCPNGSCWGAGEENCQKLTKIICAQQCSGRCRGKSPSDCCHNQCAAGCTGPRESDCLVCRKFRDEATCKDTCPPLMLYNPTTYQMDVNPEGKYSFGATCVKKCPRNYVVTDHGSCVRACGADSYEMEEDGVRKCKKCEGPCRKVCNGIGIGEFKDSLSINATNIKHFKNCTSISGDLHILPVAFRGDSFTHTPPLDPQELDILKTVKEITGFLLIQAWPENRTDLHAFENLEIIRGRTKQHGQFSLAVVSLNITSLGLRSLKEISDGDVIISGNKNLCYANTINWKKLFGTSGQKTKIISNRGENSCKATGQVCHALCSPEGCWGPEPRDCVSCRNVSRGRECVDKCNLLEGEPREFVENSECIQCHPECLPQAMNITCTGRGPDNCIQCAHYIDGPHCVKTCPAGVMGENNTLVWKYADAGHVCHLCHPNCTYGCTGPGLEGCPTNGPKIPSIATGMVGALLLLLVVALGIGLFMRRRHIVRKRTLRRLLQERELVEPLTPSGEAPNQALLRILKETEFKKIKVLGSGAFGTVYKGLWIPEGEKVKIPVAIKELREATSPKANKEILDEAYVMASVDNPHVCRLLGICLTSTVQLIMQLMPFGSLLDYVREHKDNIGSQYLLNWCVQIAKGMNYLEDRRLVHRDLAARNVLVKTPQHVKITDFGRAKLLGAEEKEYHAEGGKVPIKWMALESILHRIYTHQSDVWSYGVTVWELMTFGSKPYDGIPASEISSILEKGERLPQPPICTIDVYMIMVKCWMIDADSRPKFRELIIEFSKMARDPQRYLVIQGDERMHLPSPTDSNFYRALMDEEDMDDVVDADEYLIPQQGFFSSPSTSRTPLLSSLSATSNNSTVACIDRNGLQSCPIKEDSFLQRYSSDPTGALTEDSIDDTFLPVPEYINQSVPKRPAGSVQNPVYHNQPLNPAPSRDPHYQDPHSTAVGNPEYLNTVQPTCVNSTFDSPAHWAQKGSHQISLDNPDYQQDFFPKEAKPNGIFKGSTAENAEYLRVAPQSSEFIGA
T2 sequence (P00533 25-1210 T790M/L858R): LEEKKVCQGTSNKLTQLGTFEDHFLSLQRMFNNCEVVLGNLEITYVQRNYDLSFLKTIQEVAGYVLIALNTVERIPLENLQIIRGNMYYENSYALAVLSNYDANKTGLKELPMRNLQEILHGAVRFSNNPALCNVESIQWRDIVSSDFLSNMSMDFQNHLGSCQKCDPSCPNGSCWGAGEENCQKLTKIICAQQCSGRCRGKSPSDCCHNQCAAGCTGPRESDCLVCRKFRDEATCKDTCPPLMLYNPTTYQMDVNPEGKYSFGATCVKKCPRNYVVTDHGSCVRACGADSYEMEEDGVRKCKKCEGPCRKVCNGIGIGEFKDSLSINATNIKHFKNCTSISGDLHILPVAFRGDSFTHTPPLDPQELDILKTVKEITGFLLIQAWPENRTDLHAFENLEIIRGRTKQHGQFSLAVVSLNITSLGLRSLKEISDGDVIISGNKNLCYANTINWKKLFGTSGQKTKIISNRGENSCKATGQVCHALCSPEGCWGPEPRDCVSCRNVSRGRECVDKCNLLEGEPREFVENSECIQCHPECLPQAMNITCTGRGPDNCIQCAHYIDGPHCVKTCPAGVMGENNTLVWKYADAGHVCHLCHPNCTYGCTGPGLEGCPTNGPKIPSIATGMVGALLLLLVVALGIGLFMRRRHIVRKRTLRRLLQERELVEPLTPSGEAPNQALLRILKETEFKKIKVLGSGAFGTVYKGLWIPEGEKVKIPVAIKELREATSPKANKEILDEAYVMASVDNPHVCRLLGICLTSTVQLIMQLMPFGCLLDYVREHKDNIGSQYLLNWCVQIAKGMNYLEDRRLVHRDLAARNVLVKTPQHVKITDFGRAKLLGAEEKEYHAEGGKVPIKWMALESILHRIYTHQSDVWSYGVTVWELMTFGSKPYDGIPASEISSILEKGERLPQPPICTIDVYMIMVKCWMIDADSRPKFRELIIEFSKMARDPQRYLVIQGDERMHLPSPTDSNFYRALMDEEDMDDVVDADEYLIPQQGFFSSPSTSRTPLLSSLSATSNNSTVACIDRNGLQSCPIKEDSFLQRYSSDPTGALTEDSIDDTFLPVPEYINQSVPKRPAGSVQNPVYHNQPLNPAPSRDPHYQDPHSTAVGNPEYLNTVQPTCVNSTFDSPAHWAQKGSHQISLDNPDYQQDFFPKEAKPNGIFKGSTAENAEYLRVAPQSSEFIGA

SMILES | DC50 [1] [nM] | Dmax [2] [%] | DC50 [2] [nM] | DC50 [3] [nM] | Dmax [3] [%] | DC50 (EGFR (HCC827 cells)) [nM] | Dmax (EGFR (HCC827 cells)) [%] | DTC Dmax (%) [1] [%]
CCc1cc(Nc2ncc(Br)c(Nc3ccc4nccnc4c3P(C)(C)=O)n2)c(OC)cc1N1CCC(N2CCN(C(=O)C3CCN(c4cc(F)c(C5CCC(=O)NC5=O)c(F)c4)CC3)CC2)CC1 (stereo not shown) [Example 254, 3-(4-(4-(4-(1-(4-((5-bromo-4-((5-(dimethylphosphoryl)quinoxalin-6-yl)amino)pyrimidin-2-yl)amino)-2-ethyl-5-methoxyphenyl)piperidin-4-yl)piperazine-1-carbonyl)piperidin-1-yl)-2,6-difluorophenyl)piperidine-2,6-dione] | 4.98 | 84.7 | 15.9 | 3.61 | 75.5 | 3.14 | 77.7 | 92.55
CCc1cc(Nc2ncc(Br)c(Nc3ccc4nccnc4c3P(C)(C)=O)n2)c(OC)cc1N1CCC(N2CCN(C(=O)[C@@H]3CCN(c4cc(F)c(C5CCC(=O)NC5=O)c(F)c4)C3)CC2)CC1 (stereo partly drawn) [Example 255, 3-(4-((R)-3-(4-(1-(4-((5-bromo-4-((5-(dimethylphosphoryl)quinoxalin-6-yl)amino)pyrimidin-2-yl)amino)-2-ethyl-5-methoxyphenyl)piperidin-4-yl)piperazine-1-carbonyl)pyrrolidin-1-yl)-2,6-difluorophenyl)piperidine-2,6-dione] | 5.62 | 83.4 | 17.3 | 3.27 | 90.2 | 2.87 | 78.5 | 96.33
CCc1cc(Nc2ncc(Br)c(Nc3ccc4nccnc4c3P(C)(C)=O)n2)c(OC)cc1N1CCC(N2CCN(C(=O)CC3CN(c4ccc5c(c4)C(=O)N(C4CCC(=O)NC4=O)C5=O)C3)CC2)CC1 (stereo not shown) [Example 222, 5-(3-(2-(4-(1-(4-((5-bromo-4-((5-(dimethylphosphoryl)quinoxalin-6-yl)amino)pyrimidin-2-yl)amino)-2-ethyl-5-methoxyphenyl)piperidin-4-yl)piperazin-1-yl)-2-oxoethyl)azetidin-1-yl)-2-(2,6-dioxopiperidin-3-yl)isoindoline-1,3-dione] | 3.41 | 75.6 | 21.3 | 7.03 | 69 | 3.71 | 78.5 | 83.72

The next lines start with results.

DC50 [1] [nM] | Dmax [2] [%] | DC50 [2] [nM] | DC50 [3] [nM] | Dmax [3] [%] | DC50 (EGFR (HCC827 cells)) [nM] | Dmax (EGFR (HCC827 cells)) [%] | SMILES | DTC Dmax (%) [1] [%]
1.94 | 87.5 | 4.8 | 0.65 | 69.6 | 3.21 | 65.9 | CCc1cc(Nc2ncc(Br)c(Nc3ccc4nccnc4c3P(C)(C)=O)n2)c(OC)cc1N1CCC(N2CCN(C(=O)C3CCN(c4ccc5c(c4)C(C)(C)C(=O)N5C4CCC(=O)NC4=O)CC3)CC2)CC1 (stereo not shown) [Example 219, 3-(5-(4-(4-(1-(4-((5-bromo-4-((5-(dimethylphosphoryl)quinoxalin-6-yl)amino)pyrimidin-2-yl)amino)-2-ethyl-5-methoxyphenyl)piperidin-4-yl)piperazine-1-carbonyl)piperidin-1-yl)-3,3-dimethyl-2-oxoindolin-1-yl)piperidine-2,6-dione] | 93
4.85 | 85.4 | 1.72 | 3.12 | 85.8 | 2.06 | 75.7 | CCc1cc(Nc2ncc(Br)c(Nc3ccc4nccnc4c3P(C)(C)=O)n2)c(OC)cc1N1CCC(N2CCN(C(=O)C3CN(c4ccc5c(c4)C(=O)N(C4CCC(=O)NC4=O)C5=O)C3)CC2)CC1 (stereo not shown) [Example 64, 5-(3-(4-(1-(4-((5-bromo-4-((5-(dimethylphosphoryl)quinoxalin-6-yl)amino)pyrimidin-2-yl)amino)-2-ethyl-5-methoxyphenyl)piperidin-4-yl)piperazine-1-carbonyl)azetidin-1-yl)-2-(2,6-dioxopiperidin-3-yl)isoindoline-1,3-dione] | 90.07
